Data published in patent US9321718B2 (CHROMA THERAPEUTICS LTD., priority 2010, dated 2016).

What follows are compounds tested against T1, human recombinant his-tagged HSP90α (Homo sapiens, UniProt P07900) (assay: HSP90 enzyme assay (HTRF, competition with biotinylated Geldanamycin)). Conditions: IC50 range; read-out: Enzyme Assay.
T1 construct: purchased Prospec Technogene #HSP90
Assay type: binding
Text: An HTRF (homogeneous time resolved fluorescence) assay is used to measure the interaction of the compounds with HSP90. The assay measures binding of biotinylated Geldanamycin (bio-GM; Biomol, #EI-341, lot: A9199a) to human recombinant his-tagged HSP90α (HSP90; Prospec Technogene, #HSP90, lot: 260HSP9001). A signal is generated by fluorescence resonance energy transfer from an Europium-cryptate labeled anti-his antibody (anti-his-K; Cisbio International, #61HISKLA, lot: 33V) via the HSP90-GM-biotin complex to a fluorescence acceptor (allophycocyanin) linked to streptavidin (SA-XL; Cisbio International, #610SAXLB, lot: 089).
Unlabeled GM or compounds compete with the bio-GM for binding to HSP90 resulting in reduced fluorescence energy transfer/assay signal.
A preformed (1 hour incubation) complex of HSP90 with the anti-his-K is added to the compound solution in a 384 well microplate (Corning, #3710) and incubated for 15 minutes. A preformed (1 hour incubation) complex of bio-GM with the SA-XL is added to the wells and incubated for 20 hours. All incubations are performed at room temperature. The final assay volume is 50 μl/well. The final concentrations in the assay are: 50 mM Hepes pH 7.3, 50 mM NaCl, 100 mM KF, 1 mM EDTA, 1 mM DTT, 0.1% Triton-X-100, […] HSP90, 40 nM SA-XL, 40 nM bio-GM. Test compounds are dissolved in DMSO, prediluted in assay buffer and tested at a final concentration between 5000 nM and 0.3 nM. The resulting DMSO concentration is 0.5% and included in all controls. High controls are without test compounds, low controls without test compounds, without HSP90 and without bio-GM. As a reference inhibitor unlabeled GM is used in the same concentrations as the test compounds.
Inhibition is calculated compared to the assay controls using an Excel spreadsheet (Microsoft). IC50 values are calculated by non-linear least squares fitting to the standard dose-response model using GraphPad Prism (GraphPad Software Inc).
For CC(C)c1cc(C(=O)N2CCC(CN[C@@H](C)C(=O)O)CC2)c(O)cc1O [Example 106, N-[(1-{[2,4-dihydroxy-5-(propan-2-yl)phenyl]carbonyl}piperidin-4-yl)methyl]-L-alanine], the IC50 was under 0.1 µM.
Compound CC(C)c1cc(C(=O)N2CCC(CCN[C@H](C(=O)O)C3CCCCC3)CC2)c(O)cc1O [Example 123, (2S)-cyclohexyl{[2-(1-{[2,4-dihydroxy-5-(propan-2-yl)phenyl]carbonyl}piperidin-4-yl)ethyl]amino}ethanoic acid] has an IC50 of under 0.1 µM.
CC(C)C[C@H](NCCC1CCN(C(=O)c2cc(C(C)C)c(O)cc2O)CC1)C(=O)O [Example 104, N-[2-(1-{[2,4-dihydroxy-5-(propan-2-yl)phenyl]carbonyl}piperidin-4-yl)ethyl]-L-leucine] was tested, and the IC50 was under 0.1 µM.
For CC(C)c1cc(C(=O)N2CCC(CN[C@H](C(=O)OC(C)(C)C)C3CCCCC3)CC2)c(O)cc1O [Example 31, tert-butyl (2S)-cyclohexyl{[(1-{[2,4-dihydroxy-5-(propan-2-yl)phenyl]carbonyl}piperidin-4-yl)methyl]amino}ethanoate], the IC50 was 0.1 to 1 µM.
For CC(C)C[C@H](NC1CCN(C(=O)c2cc(C(C)C)c(O)cc2O)C1)C(=O)O (stereo partly drawn) [Example 95, N-(1-{[2,4-dihydroxy-5-(propan-2-yl)phenyl]carbonyl}pyrrolidin-3-yl)-L-leucine], the IC50 was under 0.1 µM.
Compound CC(C)c1cc(C(=O)N2CCC(N[C@H](C(=O)O)C(C)C)CC2)c(O)cc1O [Example 98, N-(1-{[2,4-dihydroxy-5-(propan-2-yl)phenyl]carbonyl}piperidin-4-yl)-L-valine] has an IC50 of under 0.1 µM.
CC(C)c1cc(C(=O)N2Cc3ccc(CCNC4(C(=O)O)CCCC4)cc3C2)c(O)cc1O [Example 93, 1-{[2-(2-{[2,4-dihydroxy-5-(propan-2-yl)phenyl]carbonyl}-2,3-dihydro-1H-isoindol-5-yl)ethyl]amino}cyclopentanecarboxylic acid] was tested, and the IC50 was under 0.1 µM.
Compound CC(C)c1cc(C(=O)N2Cc3ccc(CNC4(C(=O)O)CCCC4)cc3C2)c(O)cc1O [Example 83, 1-{[(2-{[2,4-dihydroxy-5-(propan-2-yl)phenyl]carbonyl}-2,3-dihydro-1H-isoindol-5-yl)methyl]amino}cyclopentanecarboxylic acid] has an IC50 of under 0.1 µM.
With CC(C)c1cc(C(=O)N2CCC(N[C@H](C(=O)O)c3ccccc3)CC2)c(O)cc1O [Example 99, (2S)-[(1-{[2,4-dihydroxy-5-(propan-2-yl)phenyl]carbonyl}piperidin-4-yl)amino](phenyl)ethanoic acid] the IC50 was under 0.1 µM.
In the case of CC(C)C[C@H](NC1CCCN(C(=O)c2cc(C(C)C)c(O)cc2O)C1)C(=O)O (stereo partly drawn) [Example 102, N-(1-{[2,4-dihydroxy-5-(propan-2-yl)phenyl]carbonyl}piperidin-3-yl)-L-leucine], the IC50 is reported as 0.1 to 1 µM.
In the case of CC(C)c1cc(C(=O)N2CCC(CN[C@@H](CO)C(=O)O)CC2)c(O)cc1O [Example 118, N-[(1-{[2,4-dihydroxy-5-(propan-2-yl)phenyl]carbonyl}piperidin-4-yl)methyl]-L-serine], the IC50 is reported as under 0.1 µM.
For CC(C)c1cc(C(=O)N2CCC(N[C@@H](CO)C(=O)O)CC2)c(O)cc1O [Example 125, N-(1-{[2,4-dihydroxy-5-(propan-2-yl)phenyl]carbonyl}piperidin-4-yl)-L-serine], the IC50 was under 0.1 µM.
Work on CC(C)c1cc(C(=O)N2CCC(N[C@@H](Cc3ccccc3)C(=O)O)CC2)c(O)cc1O [Example 101, N-(1-{[2,4-dihydroxy-5-(propan-2-yl)phenyl]carbonyl}piperidin-4-yl)-L-phenylalanine] yielded an IC50 of under 0.1 µM.
Work on CC(C)c1cc(C(=O)N2CCC(N[C@@H](COC(C)(C)C)C(=O)O)CC2)c(O)cc1O [Example 122, O-tert-butyl-N-(1-{[2,4-dihydroxy-5-(propan-2-yl)phenyl]carbonyl}piperidin-4-yl)-L-serine] yielded an IC50 of under 0.1 µM.
“N-{3-[(1-{[2,4-dihydroxy-5-(propan-2-yl)phenyl]carbonyl}piperidin-4-yl)amino]propyl}-L-leucine [Example 127]” gave an IC50 of under 0.1 µM.
CCOC(=O)[C@H](C)NCc1ccc2c(c1)CN(C(=O)c1cc(C(C)C)c(O)cc1O)C2 [Example 57, ethyl N-[(2-{[2,4-dihydroxy-5-(propan-2-yl)phenyl]carbonyl}-2,3-dihydro-1H-isoindol-5-yl)methyl]-L-alaninate] showed an IC50 of under 0.1 µM.
Work on CC(C)c1cc(C(=O)N2CCC(CN[C@H](C(=O)O)C(C)C)CC2)c(O)cc1O [Example 112, N-[(1-{[2,4-dihydroxy-5-(propan-2-yl)phenyl]carbonyl}piperidin-4-yl)methyl]-L-valine] yielded an IC50 of under 0.1 µM.
For CC(C)c1cc(C(=O)N2CCC(CCN[C@H](C(=O)OC(C)(C)C)C3CCCCC3)CC2)c(O)cc1O [Example 49, tert-butyl (2S)-cyclohexyl{[2-(1-{[2,4-dihydroxy-5-(propan-2-yl)phenyl]carbonyl}piperidin-4-yl)ethyl]amino}ethanoate], the IC50 was under 0.1 µM.
“tert-butyl N-[2-(1-{[2,4-dihydroxy-5-(propan-2-yl)phenyl]carbonyl}piperidin-4-yl)ethyl]-L-serinate [Example 52]” showed an IC50 of under 0.1 µM.
For CC(C)C[C@H](NC1CCN(C(=O)c2cc(C(C)C)c(O)cc2O)CC1)C(=O)O [Example 96, N-(1-{[2,4-dihydroxy-5-(propan-2-yl)phenyl]carbonyl}piperidin-4-yl)-L-leucine], the IC50 was under 0.1 µM.
Work on CC(C)c1cc(C(=O)N2CCC(N[C@H](C(=O)O)C3CCCCC3)CC2)c(O)cc1O [Example 113] yielded an IC50 of under 0.1 µM.
CC(C)C[C@H](NCCc1ccc2c(c1)CN(C(=O)c1cc(C(C)C)c(O)cc1O)C2)C(=O)O [Example 81, N-[2-(2-{[2,4-dihydroxy-5-(propan-2-yl)phenyl]carbonyl}-2,3-dihydro-1H-isoindol-5-yl)ethyl]-L-leucine] showed an IC50 of under 0.1 µM.
With CC(C)c1cc(C(=O)N(C)Cc2cccc(CN[C@H](C(=O)O)c3ccccc3)c2)c(O)cc1O [Example 89, (2S)-[(3-{[{[2,4-dihydroxy-5-(propan-2-yl)phenyl]carbonyl}(methyl)amino]methyl}benzyl)amino](phenyl)ethanoic acid] the IC50 was under 0.1 µM.
CC(C)c1cc(C(=O)N2CCC(CN[C@@H](COC(C)(C)C)C(=O)O)CC2)c(O)cc1O [Example 119] showed an IC50 of under 0.1 µM.
CC(C)c1cc(C(=O)N2Cc3ccc(CNC(C)(C)C(=O)O)cc3C2)c(O)cc1O [Example 79, N-[(2-{[2,4-dihydroxy-5-(propan-2-yl)phenyl]carbonyl}-2,3-dihydro-1H-isoindol-5-yl)methyl]-2-methylalanine] gave an IC50 of under 0.1 µM.
CC(C)c1cc(C(=O)N2CCC(CCN[C@H](C(=O)O)c3ccccc3)CC2)c(O)cc1O [Example 124, (2S)-{[2-(1-{[2,4-dihydroxy-5-(propan-2-yl)phenyl]carbonyl}piperidin-4-yl)ethyl]amino}(phenyl)ethanoic acid] showed an IC50 of under 0.1 µM.
In the case of CC(C)c1cc(C(=O)N2CCC(CCN[C@@H](Cc3ccccc3)C(=O)OC(C)(C)C)CC2)c(O)cc1O [Example 41, tert-butyl N-[2-(1-{[2,4-dihydroxy-5-(propan-2-yl)phenyl]carbonyl}piperidin-4-yl)ethyl]-L-phenylalaninate], the IC50 is reported as under 0.1 µM.
Compound CC(C)OC(=O)[C@H](C)NCc1ccc2c(c1)CN(C(=O)c1cc(C(C)C)c(O)cc1O)C2 [Example 58, propan-2-yl N-[(2-{[2,4-dihydroxy-5-(propan-2-yl)phenyl]carbonyl}-2,3-dihydro-1H-isoindol-5-yl)methyl]-L-alaninate] has an IC50 of under 0.1 µM.

Same assay, conditions: in words, relative to non-ester parent CHR-7310
CC(C)c1cc(C(=O)N2CCC(N[C@@H](COC(C)(C)C)C(=O)O)CC2)c(O)cc1O [Example 122, O-tert-butyl-N-(1-{[2,4-dihydroxy-5-(propan-2-yl)phenyl]carbonyl}piperidin-4-yl)-L-serine] was tested, and the “IC50 in the Hsp90 binding assay compared with CHR-7310” value was “similar”.
